Results: article PMC9712021 (Advances in Pharmacological and Pharmaceutical Sciences, 2022)

Experiments:
[1] = system: S. cerevisiae strains (SODWT, Sod1Δ, Sod2Δ, Cat1Δ, Sod1/Sod2Δ, Cat1Δ/Sod1Δ); assay: In vivo antioxidant (S. cerevisiae) test, all strains tested; assay type: cell-based, Saccharomyces cerevisiae; conditions: all strains and concentrations tested
Description: (§1) The central disc test was done according to the method presented by Islam et al.. Superoxide dismutase (CuZnSOD-Sod1) is a cytosolic enzyme that is faulty in strain EG118, whereas mitochondrial SOD is faulty in strain EG110 (MnSOD-Sod2). The strain EG133 has both Sod1 and Sod2 defects, while EG223 has a cytosolic catalase deficiency (Cat1). While EG103 is a competent strain that is identical to the wild-type (SODWT), EG is a dual isogenic strain for the Sod1 and Cat1 genes.

[2] = system: S. cerevisiae EG103 (SODWT); assay: S. cerevisiae central disc test, oxidative damage, strain SODWT; assay type: cell-based, Saccharomyces cerevisiae; parameters: unit not given here
Description: as §1

[3] = system: S. cerevisiae EG223 (Cat1∆); assay: S. cerevisiae central disc test, oxidative damage, strain Cat1∆; assay type: cell-based, Saccharomyces cerevisiae
Description: as §1

[4] = Hemolytic activity in mice erythrocytes; assay type: cell-based, Mus musculus; conditions: male, Swiss albino, mouse, pH 7.4, 37°C, 2 h
Method: This test was performed on adult Swiss albino mouse (Mus musculus) erythrocytes. The mouse was collected from the Central Animal House of the Federal University of Piaui, Brazil. It was allowed free access to standard food and water ad libitum and was kept under controlled lighting (12 h dark/light cycles) at 24 ± 2°C. Blood was collected from the retro-orbital plexus of the mouse (male, 24 gm body weight). Hemolytic activity in mouse erythrocytes was performed, according to Jamialahmadi et al..

[5] = system: S. cerevisiae EG (Sod1∆Cat1∆); assay: S. cerevisiae central disc test, oxidative damage, strain Sod1∆Cat1∆; assay type: cell-based, Saccharomyces cerevisiae
Description: as §1

[6] = DPPH radical scavenging capacity assay; conditions: 0.9–14.4 μg/mL; standard Trolox
Method: The DPPH assay was performed according to the method described by Abderrahim et al.. Briefly, a solution containing 300 μL of monoterpenes (0.9–14.4 μg/mL) was added to 2.7 mL of DPPH^• solution (0.5 mM in ethanol). After 30 min, the absorbance was measured using a spectrophotometer (Shimadzu, Japan) at 517 nm.

[7] = system: S. cerevisiae EG118 (Sod1∆); assay: S. cerevisiae central disc test, oxidative damage, strain Sod1∆; assay type: cell-based, Saccharomyces cerevisiae
Description: as §1

[8] = system: S. cerevisiae EG110 (Sod2∆); assay: S. cerevisiae central disc test, oxidative damage, strain Sod2∆; assay type: cell-based, Saccharomyces cerevisiae
Description: as §1

[9] = parameters: method as in Oliveira [41]; conditions: concentrations from 7.83 to 500 μg/mL; ref Oliveira [41]; cited from earlier work
[10] = system: S. cerevisiae EG133 (Sod1∆Sod2∆); assay: S. cerevisiae central disc test, oxidative damage, strain Sod1∆Sod2∆; assay type: cell-based, Saccharomyces cerevisiae
Description: as §1

With C=CCc1ccc(OC)cc1 [Estragole, estragole] the “percentage modulation of oxidative damage caused by the stressor H2O2” value [1] was “more than 60%”, the oxidative damage ([2]; 0.9 μg/mL) was 2.00 ± 0.54 and the oxidative damage ([2]; 1.8 μg/mL) was 1.50 ± 0.70. The oxidative damage ([2]; 7.2 μg/mL) was 2.00 ± 1.41, the oxidative damage ([2]; 14.4 μg/mL) was 2.50 ± 0.70 and the oxidative damage ([2]; 32 μg/mL) was 2.00 ± 0.54. It also gave an oxidative damage ([2]; 64 μg/mL) of 2.00 ± 0.54, an oxidative damage ([2]; 128 μg/mL) of 1.50 ± 0.70 and an oxidative damage ([2]; 3.6 mg/mL) of 1.00 ± 1.41. The oxidative damage ([2]; 256 mg/mL) was 3.50 ± 0.70, the oxidative damage ([2]; 500 mg/mL) was 1.50 ± 0.70 and the oxidative damage ([3]; 0.9 μg/mL) was 3.00 ± 1.41. It also gave an oxidative damage ([3]; 1.8 μg/mL) of 4.50 ± 0.70, an oxidative damage ([3]; 7.2 μg/mL) of 1.50 ± 2.12 and an oxidative damage ([3]; 14.4 μg/mL) of 4.50 ± 2.12. For the same molecule, the oxidative damage ([3]; 32 μg/mL) was 3.00 ± 1.41, the oxidative damage ([3]; 64 μg/mL) was 7.00 ± 1.41^∗ and the oxidative damage ([3]; 128 μg/mL) was 2.50 ± 0.70. For the same molecule, the oxidative damage ([3]; 3.6 mg/mL) was 4.00 ± 1.41, the oxidative damage ([3]; 256 mg/mL) was 3.00 ± 1.41 and the oxidative damage ([3]; 500 mg/mL) was 4.50 ± 0.70. The hemolysis at 2 h, 31.25 μg/mL ([4]; 31.25 μg/mL) was 1.67 ± 0.35%, the hemolysis at 2 h, 62.5 μg/mL ([4]; 62.5 μg/mL) was 3.49 ± 0.26% and the hemolysis at 2 h, 125 μg/mL ([4]; 125 μg/mL) was 4.45 ± 0.47%. For the same molecule, the hemolysis at 2 h, 250 μg/mL ([4]; 250 μg/mL) was 8.21 ± 0.35%, the hemolysis at 2 h, 500 μg/mL ([4]; 500 μg/mL) was 10.3 ± 1.35% and the oxidative damage ([5]; 0.9 μg/mL) was 3.50 ± 0.70. It also gave an oxidative damage ([5]; 1.8 μg/mL) of 4.00 ± 2.82, an oxidative damage ([5]; 7.2 μg/mL) of 3.50 ± 0.70 and an oxidative damage ([5]; 14.4 μg/mL) of 5.00 ± 0.0. It also gave an oxidative damage ([5]; 32 μg/mL) of 4.50 ± 0.70, an oxidative damage ([5]; 64 μg/mL) of 3.00 ± 1.41 and an oxidative damage ([5]; 128 μg/mL) of 4.50 ± 2.12. It also gave an oxidative damage ([5]; 256 μg/mL) of 3.00 ± 2.82, an oxidative damage ([5]; 3.6 mg/mL) of 4.00 ± 1.41 and an oxidative damage ([5]; 500 mg/mL) of 3.50 ± 0.70. The “DPPH radical scavenging activity” value [6] was “highest scavenging activity”, the oxidative damage ([7]; 0.9 μg/mL) was 2.00 ± 1.41 and the oxidative damage ([7]; 1.8 μg/mL) was 1.50 ± 0.70. For the same molecule, the oxidative damage ([7]; 7.2 μg/mL) was 2.00 ± 1.41, the oxidative damage ([7]; 14.4 μg/mL) was 2.00 ± 0.54 and the oxidative damage ([7]; 32 μg/mL) was 2.50 ± 0.70. For the same molecule, the oxidative damage ([7]; 64 μg/mL) was 2.50 ± 0.70, the oxidative damage ([7]; 128 μg/mL) was 2.50 ± 0.70 and the oxidative damage ([7]; 3.6 mg/mL) was 2.50 ± 0.70. It also gave an oxidative damage ([7]; 256 mg/mL) of 2.50 ± 0.70, an oxidative damage ([7]; 500 mg/mL) of 1.50 ± 0.70 and an oxidative damage ([8]; 0.9 μg/mL) of 3.00 ± 1.41. It also gave an oxidative damage ([8]; 1.8 μg/mL) of 3.50 ± 0.70, an oxidative damage ([8]; 7.2 μg/mL) of 2.00 ± 0.54 and an oxidative damage ([8]; 14.4 μg/mL) of 3.50 ± 0.70. The oxidative damage ([8]; 32 μg/mL) was 2.00 ± 0.54, the oxidative damage ([8]; 64 μg/mL) was 3.50 ± 0.70 and the oxidative damage ([8]; 128 μg/mL) was 3.50 ± 0.70. It also gave an oxidative damage ([8]; 3.6 mg/mL) of 2.00 ± 0.54, an oxidative damage ([8]; 256 mg/mL) of 2.50 ± 0.70 and an oxidative damage ([8]; 500 mg/mL) of 3.00 ± 1.41. The antioxidant capacity [9] was “mild antioxidant capacity”, the oxidative damage ([10]; 0.9 μg/mL) was 3.50 ± 0.70 and the oxidative damage ([10]; 1.8 μg/mL) was 3.50 ± 0.70. The oxidative damage ([10]; 7.2 μg/mL) was 2.50 ± 0.70, the oxidative damage ([10]; 14.4 μg/mL) was 3.50 ± 0.70 and the oxidative damage ([10]; 32 μg/mL) was 2.50 ± 0.70. It also gave an oxidative damage ([10]; 64 μg/mL) of 1.50 ± 0.70, an oxidative damage ([10]; 128 μg/mL) of 3.00 ± 1.41 and an oxidative damage ([10]; 3.6 mg/mL) of 2.50 ± 0.70. It also gave an oxidative damage ([10]; 256 mg/mL) of 2.50 ± 2.12 and an oxidative damage ([10]; 500 mg/mL) of 2.50 ± 0.70.
